Assay results taken from PMC12090182, “Repurposing of the RIPK1-Selective Benzo[1,4]oxazepin-4-one Scaffold for the Development of a Type III LIMK1/2 Inhibitor” (ACS Chemical Biology, 2025).

Key:
Experiment in all cases: scanMAX KINOMEscan (Eurofins)
Format in all cases: binding
PAK3 = PAK3 (Homo sapiens, UniProt O75914); details: 1000 nM, read-out: Percent Control
From the text: (§1) Supplement cb5c00097_si_002.xlsx, sheet "Table S6 (Eurofins Selectivity)" | column: Percent Control

FGFR2 = FGFR2 (Homo sapiens, UniProt P21802); details: read-out: Percent Control
From the text: as §1

CDKL1 = CDKL1 (Homo sapiens, UniProt Q00532); details: read-out: Percent Control
From the text: as §1

AMPK-alpha2 = AMPK-alpha2 (Homo sapiens, UniProt P54646); details: read-out: Percent Control
From the text: as §1

VPS34 = VPS34 (Homo sapiens, UniProt Q8NEB9); details: compound concentration 100 nM; Entrez PIK3C3; read-out: Percent Control
From the text: as §1

PIM2 = PIM2 (Homo sapiens, UniProt Q9P1W9); details: 1000 nM, read-out: Percent Control
From the text: as §1

CSNK1G3 = CSNK1G3 (Homo sapiens, UniProt Q9Y6M4); details: read-out: Percent Control
From the text: as §1

HASPIN = HASPIN (Homo sapiens, UniProt Q8TF76); details: 1000 nM, read-out: Percent Control
From the text: as §1

EPHB2 = EPHB2 (Homo sapiens, UniProt P29323); details: 1000 nM, read-out: Percent Control
From the text: as §1

CDK4 = CDK4 (Homo sapiens, UniProt P11802); details: 1000 nM, read-out: Percent Control
From the text: as §1

EPHA6 = EPHA6 (Homo sapiens, UniProt Q9UF33); details: 1000 nM, read-out: Percent Control
From the text: as §1

WEE1 = WEE1 (Homo sapiens, UniProt P30291); details: 1000 nM, read-out: Percent Control
From the text: as §1

p38-beta = p38-beta (Homo sapiens, UniProt Q15759); details: 1000 nM, read-out: Percent Control
From the text: as §1

CSNK1E = CSNK1E (Homo sapiens, UniProt P49674); details: read-out: Percent Control
From the text: as §1

AURKA = AURKA (Homo sapiens, UniProt O14965); details: 1000 nM, read-out: Percent Control
From the text: as §1

CTK = CTK (Homo sapiens, UniProt P42679); details: 1000 nM, read-out: Percent Control
From the text: as §1

[1] = target: RSK2(Kin.Dom.1-N-terminal) (Homo sapiens, UniProt P51812); details: compound concentration 100 nM; Entrez RPS6KA3; read-out: Percent Control
From the text: as §1

ERBB2 = ERBB2 (Homo sapiens, UniProt P04626); details: read-out: Percent Control
From the text: as §1

p38-gamma = p38-gamma (Homo sapiens, UniProt P53778); details: 1000 nM, read-out: Percent Control
From the text: as §1

CSF1R-autoinhibited = CSF1R-autoinhibited (Homo sapiens, UniProt P07333); details: 1000 nM, read-out: Percent Control
From the text: as §1

[2] = target: JAK1(JH2domain-pseudokinase) (Homo sapiens, UniProt P23458); details: 1000 nM, read-out: Percent Control
From the text: as §1

FES = FES (Homo sapiens, UniProt P07332); details: read-out: Percent Control
From the text: as §1

PKMYT1 = PKMYT1 (Homo sapiens, UniProt Q99640); details: 1000 nM, read-out: Percent Control
From the text: as §1

LATS2 = LATS2 (Homo sapiens, UniProt Q9NRM7); details: 1000 nM, read-out: Percent Control
From the text: as §1

TLK2 = TLK2 (Homo sapiens, UniProt Q86UE8); details: compound concentration 100 nM; Entrez TLK2; read-out: Percent Control
From the text: as §1

MEK4 = MEK4 (Homo sapiens, UniProt P45985); details: compound concentration 100 nM; Entrez MAP2K4; read-out: Percent Control
From the text: as §1

EPHB1 = EPHB1 (Homo sapiens, UniProt P54762); details: 1000 nM, read-out: Percent Control
From the text: as §1

BRSK2 = BRSK2 (Homo sapiens, UniProt Q8IWQ3); details: read-out: Percent Control
From the text: as §1

S6K1 = S6K1 (Homo sapiens, UniProt P23443); details: compound concentration 100 nM; Entrez RPS6KB1; read-out: Percent Control
From the text: as §1

RIOK3 = RIOK3 (Homo sapiens, UniProt O14730); details: 1000 nM, read-out: Percent Control
From the text: as §1

YANK1 = YANK1 (Homo sapiens, UniProt Q8WU08); details: 1000 nM, read-out: Percent Control
From the text: as §1

SIK2 = SIK2 (Homo sapiens, UniProt Q9H0K1); details: compound concentration 100 nM; Entrez SIK2; read-out: Percent Control
From the text: as §1

INSRR = INSRR (Homo sapiens, UniProt P14616); details: 1000 nM, read-out: Percent Control
From the text: as §1

MST3 = MST3 (Homo sapiens, UniProt Q9Y6E0); details: 1000 nM, read-out: Percent Control
From the text: as §1

PRKG2 = PRKG2 (Homo sapiens, UniProt Q13237); details: 1000 nM, read-out: Percent Control
From the text: as §1

ACVR2B = ACVR2B (Homo sapiens, UniProt Q13705); details: 1000 nM, read-out: Percent Control
From the text: as §1

NEK5 = NEK5 (Homo sapiens, UniProt Q6P3R8); details: 1000 nM, read-out: Percent Control
From the text: as §1

Sequence of CSNK1G3 (Q9Y6M4 whole entry): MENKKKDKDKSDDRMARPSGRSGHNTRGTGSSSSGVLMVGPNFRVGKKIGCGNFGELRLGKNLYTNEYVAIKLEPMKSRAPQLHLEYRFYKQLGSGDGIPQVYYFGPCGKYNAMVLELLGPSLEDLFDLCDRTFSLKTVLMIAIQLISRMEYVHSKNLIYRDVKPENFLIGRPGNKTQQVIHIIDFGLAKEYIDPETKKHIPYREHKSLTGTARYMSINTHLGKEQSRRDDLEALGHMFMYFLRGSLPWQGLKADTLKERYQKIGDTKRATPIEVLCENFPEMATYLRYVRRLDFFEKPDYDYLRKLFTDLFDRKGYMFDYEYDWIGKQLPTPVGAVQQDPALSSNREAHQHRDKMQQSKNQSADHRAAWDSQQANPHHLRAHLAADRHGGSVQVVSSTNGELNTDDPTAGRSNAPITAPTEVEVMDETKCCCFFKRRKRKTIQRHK
Sequence of BRSK2 (Q8IWQ3 whole entry): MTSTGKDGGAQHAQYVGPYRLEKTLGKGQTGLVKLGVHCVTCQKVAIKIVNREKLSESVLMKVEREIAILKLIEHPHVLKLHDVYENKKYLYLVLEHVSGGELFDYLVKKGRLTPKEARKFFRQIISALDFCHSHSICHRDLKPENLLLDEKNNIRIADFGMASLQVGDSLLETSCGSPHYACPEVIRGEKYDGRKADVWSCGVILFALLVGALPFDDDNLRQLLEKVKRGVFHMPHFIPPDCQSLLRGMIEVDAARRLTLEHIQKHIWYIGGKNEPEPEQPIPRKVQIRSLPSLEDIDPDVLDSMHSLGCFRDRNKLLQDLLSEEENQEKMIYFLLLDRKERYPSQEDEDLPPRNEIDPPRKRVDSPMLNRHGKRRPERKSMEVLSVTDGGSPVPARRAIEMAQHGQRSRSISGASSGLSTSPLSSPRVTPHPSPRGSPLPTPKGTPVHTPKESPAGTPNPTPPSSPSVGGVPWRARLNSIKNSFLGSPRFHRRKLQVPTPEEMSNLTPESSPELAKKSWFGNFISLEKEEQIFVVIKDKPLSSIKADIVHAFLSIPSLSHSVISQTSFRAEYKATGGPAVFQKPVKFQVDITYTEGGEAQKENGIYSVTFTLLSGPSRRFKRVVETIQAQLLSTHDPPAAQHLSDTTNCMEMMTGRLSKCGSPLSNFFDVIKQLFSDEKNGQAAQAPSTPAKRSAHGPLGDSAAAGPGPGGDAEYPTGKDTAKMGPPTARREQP
Sequence of AMPK-alpha2 (P54646 whole entry): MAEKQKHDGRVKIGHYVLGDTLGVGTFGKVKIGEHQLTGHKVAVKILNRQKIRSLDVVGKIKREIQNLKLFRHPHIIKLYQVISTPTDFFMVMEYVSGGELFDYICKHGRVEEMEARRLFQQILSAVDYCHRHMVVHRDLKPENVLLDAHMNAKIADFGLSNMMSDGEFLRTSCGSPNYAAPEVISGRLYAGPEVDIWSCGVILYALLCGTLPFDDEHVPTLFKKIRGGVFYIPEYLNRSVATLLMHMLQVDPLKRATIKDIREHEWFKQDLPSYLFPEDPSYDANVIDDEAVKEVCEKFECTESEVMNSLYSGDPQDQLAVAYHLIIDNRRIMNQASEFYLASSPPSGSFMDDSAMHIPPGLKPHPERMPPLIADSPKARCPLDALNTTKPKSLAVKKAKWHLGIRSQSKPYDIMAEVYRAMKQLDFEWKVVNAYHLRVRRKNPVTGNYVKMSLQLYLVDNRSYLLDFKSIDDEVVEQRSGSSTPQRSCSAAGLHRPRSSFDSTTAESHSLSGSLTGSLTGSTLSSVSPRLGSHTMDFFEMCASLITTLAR
Sequence of CDKL1 (Q00532 whole entry): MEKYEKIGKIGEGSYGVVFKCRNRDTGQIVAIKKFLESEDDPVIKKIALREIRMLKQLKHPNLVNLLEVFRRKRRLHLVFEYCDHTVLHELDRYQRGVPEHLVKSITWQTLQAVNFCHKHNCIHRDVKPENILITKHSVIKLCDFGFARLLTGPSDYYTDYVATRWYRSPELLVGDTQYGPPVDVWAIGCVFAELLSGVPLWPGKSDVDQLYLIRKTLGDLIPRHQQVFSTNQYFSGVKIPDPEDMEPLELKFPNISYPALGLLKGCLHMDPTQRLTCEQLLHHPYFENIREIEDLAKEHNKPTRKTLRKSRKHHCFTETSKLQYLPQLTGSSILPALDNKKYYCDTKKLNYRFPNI
Sequence of CSNK1E (P49674 whole entry): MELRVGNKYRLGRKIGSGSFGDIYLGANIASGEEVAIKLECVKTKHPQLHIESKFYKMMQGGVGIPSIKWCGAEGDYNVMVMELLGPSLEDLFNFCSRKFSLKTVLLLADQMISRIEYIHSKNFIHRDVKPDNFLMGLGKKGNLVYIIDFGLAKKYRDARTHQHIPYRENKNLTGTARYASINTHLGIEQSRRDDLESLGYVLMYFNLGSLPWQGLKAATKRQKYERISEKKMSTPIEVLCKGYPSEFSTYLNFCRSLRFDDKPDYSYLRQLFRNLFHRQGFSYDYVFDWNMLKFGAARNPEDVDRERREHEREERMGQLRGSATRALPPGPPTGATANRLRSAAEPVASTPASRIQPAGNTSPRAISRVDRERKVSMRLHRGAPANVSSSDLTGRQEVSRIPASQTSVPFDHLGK
Sequence of ERBB2 (P04626 23-1255): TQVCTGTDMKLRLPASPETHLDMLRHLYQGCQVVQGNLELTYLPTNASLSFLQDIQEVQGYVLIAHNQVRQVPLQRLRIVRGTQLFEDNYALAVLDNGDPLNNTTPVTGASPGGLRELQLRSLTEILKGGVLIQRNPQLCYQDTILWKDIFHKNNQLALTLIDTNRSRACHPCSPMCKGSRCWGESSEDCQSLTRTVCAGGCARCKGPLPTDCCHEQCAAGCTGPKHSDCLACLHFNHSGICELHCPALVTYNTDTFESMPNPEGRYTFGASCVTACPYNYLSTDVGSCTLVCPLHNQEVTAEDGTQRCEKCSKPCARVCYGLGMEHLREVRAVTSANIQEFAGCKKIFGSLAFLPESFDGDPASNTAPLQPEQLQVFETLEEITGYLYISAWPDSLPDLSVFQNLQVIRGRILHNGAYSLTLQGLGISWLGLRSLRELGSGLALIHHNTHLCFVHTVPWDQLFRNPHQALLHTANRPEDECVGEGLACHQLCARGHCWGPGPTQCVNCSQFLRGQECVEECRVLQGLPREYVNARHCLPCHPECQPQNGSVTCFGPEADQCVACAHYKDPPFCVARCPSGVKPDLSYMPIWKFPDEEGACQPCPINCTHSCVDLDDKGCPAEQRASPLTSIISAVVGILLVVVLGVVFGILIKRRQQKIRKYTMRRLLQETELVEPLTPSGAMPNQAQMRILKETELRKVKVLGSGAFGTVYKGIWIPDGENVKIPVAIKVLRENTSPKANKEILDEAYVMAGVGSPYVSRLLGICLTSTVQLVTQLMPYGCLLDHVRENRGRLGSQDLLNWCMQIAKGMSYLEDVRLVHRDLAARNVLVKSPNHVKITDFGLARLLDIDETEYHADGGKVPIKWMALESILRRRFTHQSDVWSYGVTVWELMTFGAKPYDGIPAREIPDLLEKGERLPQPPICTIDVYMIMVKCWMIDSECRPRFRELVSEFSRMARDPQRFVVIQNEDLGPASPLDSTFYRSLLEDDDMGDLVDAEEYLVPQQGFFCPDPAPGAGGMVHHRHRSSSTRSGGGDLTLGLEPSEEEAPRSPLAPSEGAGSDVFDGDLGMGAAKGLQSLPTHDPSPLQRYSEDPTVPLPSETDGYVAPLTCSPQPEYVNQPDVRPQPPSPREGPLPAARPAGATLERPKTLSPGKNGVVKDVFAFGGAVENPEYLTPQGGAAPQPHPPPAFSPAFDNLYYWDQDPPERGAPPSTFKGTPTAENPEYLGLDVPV
Sequence of FES (P07332 whole entry): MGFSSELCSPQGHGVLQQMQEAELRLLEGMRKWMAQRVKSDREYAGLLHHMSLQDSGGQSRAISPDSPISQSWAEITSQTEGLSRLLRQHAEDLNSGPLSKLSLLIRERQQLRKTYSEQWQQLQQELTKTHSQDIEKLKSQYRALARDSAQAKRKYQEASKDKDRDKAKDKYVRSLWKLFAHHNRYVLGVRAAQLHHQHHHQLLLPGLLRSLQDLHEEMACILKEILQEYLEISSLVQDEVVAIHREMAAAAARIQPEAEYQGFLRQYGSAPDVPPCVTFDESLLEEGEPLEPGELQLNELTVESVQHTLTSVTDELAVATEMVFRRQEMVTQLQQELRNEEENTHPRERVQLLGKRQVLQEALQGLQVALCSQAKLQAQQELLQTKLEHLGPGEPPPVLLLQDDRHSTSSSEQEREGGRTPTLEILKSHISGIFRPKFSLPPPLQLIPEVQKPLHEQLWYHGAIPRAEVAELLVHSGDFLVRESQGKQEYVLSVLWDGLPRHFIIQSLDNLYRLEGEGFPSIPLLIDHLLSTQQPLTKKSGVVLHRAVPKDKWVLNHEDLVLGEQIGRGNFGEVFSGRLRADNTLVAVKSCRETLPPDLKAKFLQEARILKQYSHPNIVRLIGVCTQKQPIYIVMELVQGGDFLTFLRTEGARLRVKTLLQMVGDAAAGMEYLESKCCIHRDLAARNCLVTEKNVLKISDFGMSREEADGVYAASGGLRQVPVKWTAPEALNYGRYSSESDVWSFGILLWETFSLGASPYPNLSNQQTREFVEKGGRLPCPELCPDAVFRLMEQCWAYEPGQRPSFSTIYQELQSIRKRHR
Sequence of AURKA (O14965 whole entry): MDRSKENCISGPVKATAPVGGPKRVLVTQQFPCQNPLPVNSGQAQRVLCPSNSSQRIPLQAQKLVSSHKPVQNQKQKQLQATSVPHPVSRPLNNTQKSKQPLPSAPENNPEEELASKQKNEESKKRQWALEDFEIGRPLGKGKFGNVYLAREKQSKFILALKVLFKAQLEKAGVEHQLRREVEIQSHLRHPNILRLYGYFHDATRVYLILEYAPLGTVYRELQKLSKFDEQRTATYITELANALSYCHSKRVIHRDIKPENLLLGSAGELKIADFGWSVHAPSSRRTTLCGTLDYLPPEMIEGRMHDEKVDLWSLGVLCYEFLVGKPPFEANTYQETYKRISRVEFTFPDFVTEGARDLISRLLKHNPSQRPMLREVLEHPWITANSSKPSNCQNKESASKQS

Q: `CN1C(=O)[C@@H](N2CCc3c(nn(Cc4ccccc4)c3C(N)=O)C2=O)COc2cc(Cl)ccc21` [Compound 10, (S)-2-benzyl-6-(8-chloro-5-methyl-4-oxo-2,3,4,5-tetrahydrobenzo[b][1,4]oxazepin-3-yl)-7-oxo-4,5,6,7-tetrahydro-2H-pyrazolo[3,4-c]pyridine-3-carboxamide] was tested. Which remaining binding at 1 µM (PAK3) did it give?
A: 74%

Q: What about the remaining binding at 1 µM (FGFR2; 1000 nM) of the same compound?
A: 100%

Q: What about the remaining binding at 0.1 µM (FGFR2; compound concentration 100 nM, Entrez FGFR2) of the same compound?
A: 100%

Q: What about the remaining binding at 1 µM (CDKL1; 1000 nM) of the same compound?
A: 99%

Q: What about the remaining binding at 0.1 µM (CDKL1; compound concentration 100 nM, Entrez CDKL1) of the same compound?
A: 96%

Q: What about the remaining binding at 1 µM (AMPK-alpha2; 1000 nM) of the same compound?
A: 100%

Q: And the remaining binding at 0.1 µM (AMPK-alpha2; compound concentration 100 nM, Entrez PRKAA2)?
A: 100%

Q: And the remaining binding at 0.1 µM (VPS34)?
A: 100%

Q: And the remaining binding at 1 µM (PIM2)?
A: 91%

Q: And the remaining binding at 1 µM (CSNK1G3; 1000 nM)?
A: 100%

Q: And the remaining binding at 0.1 µM (CSNK1G3; compound concentration 100 nM, Entrez CSNK1G3)?
A: 98%

Q: What about the remaining binding at 1 µM (HASPIN) of the same compound?
A: 96%

Q: What about the remaining binding at 1 µM (EPHB2) of the same compound?
A: 81%

Q: And the remaining binding at 1 µM (CDK4)?
A: 76%

Q: And the remaining binding at 1 µM (EPHA6)?
A: 86%

Q: What about the remaining binding at 1 µM (WEE1) of the same compound?
A: 95%

Q: What about the remaining binding at 1 µM (p38-beta) of the same compound?
A: 97%

Q: And the remaining binding at 1 µM (CSNK1E; 1000 nM)?
A: 100%

Q: What about the remaining binding at 0.1 µM (CSNK1E; compound concentration 100 nM, Entrez CSNK1E) of the same compound?
A: 91%

Q: What about the remaining binding at 1 µM (AURKA) of the same compound?
A: 72%

Q: And the remaining binding at 1 µM (CTK)?
A: 97%

Q: And the remaining binding at 0.1 µM [1]?
A: 100%

Q: And the remaining binding at 1 µM (ERBB2; 1000 nM)?
A: 100%

Q: And the remaining binding at 0.1 µM (ERBB2; compound concentration 100 nM, Entrez ERBB2)?
A: 100%

Q: And the remaining binding at 1 µM (p38-gamma)?
A: 70%

Q: And the remaining binding at 1 µM (CSF1R-autoinhibited)?
A: 74%

Q: What about the remaining binding at 1 µM [2] of the same compound?
A: 94%

Q: And the remaining binding at 1 µM (FES; 1000 nM)?
A: 100%

Q: And the remaining binding at 0.1 µM (FES; compound concentration 100 nM, Entrez FES)?
A: 100%

Q: What about the remaining binding at 1 µM (PKMYT1) of the same compound?
A: 95%

Q: And the remaining binding at 1 µM (LATS2)?
A: 69%

Q: And the remaining binding at 0.1 µM (TLK2)?
A: 82%

Q: What about the remaining binding at 0.1 µM (MEK4) of the same compound?
A: 100%

Q: What about the remaining binding at 1 µM (EPHB1) of the same compound?
A: 94%

Q: And the remaining binding at 1 µM (BRSK2; 1000 nM)?
A: 100%

Q: And the remaining binding at 0.1 µM (BRSK2; compound concentration 100 nM, Entrez BRSK2)?
A: 85%

Q: And the remaining binding at 0.1 µM (S6K1)?
A: 76%

Q: What about the remaining binding at 1 µM (RIOK3) of the same compound?
A: 77%

Q: And the remaining binding at 1 µM (YANK1)?
A: 90%

Q: What about the remaining binding at 0.1 µM (SIK2) of the same compound?
A: 71%

Q: What about the remaining binding at 1 µM (INSRR) of the same compound?
A: 76%

Q: And the remaining binding at 1 µM (MST3)?
A: 96%

Q: What about the remaining binding at 1 µM (PRKG2) of the same compound?
A: 90%

Q: What about the remaining binding at 1 µM (ACVR2B) of the same compound?
A: 94%

Q: And the remaining binding at 1 µM (NEK5)?
A: 96%
